Assay results reported in US20230381327A1, “REACTIVE CONJUGATES” (DEBIOPHARM RESEARCH & MANUFACTURING S.A., priority 2020, published 2023).
Residues, ends and D or L forms follow the SMILES beside them.

Tests used:
[1] = biological target: T1, trastuzumab (Homo sapiens, UniProt P01857, D239E/L241M); experiment: Preparation of trastuzumab-payload conjugates in solution, HRMS analysis (DoC, Fc/F(ab)2 selectivity); settings: 10 eq of peptide-payload conjugate
T1 construct: purchased Roche Herceptin®
Experimental: Deglycosylation of the conjugates was achieved by incubating 1 unit of Endo S per μg of conjugate in the formulation buffer (37° C.-1 hour).
The average Degree of Conjugation (DoC) values were calculated using the HRMS data and the Equation 1 (Eq. 1) below.
where I(DoCk) is the relative peak intensity of conjugates with k add-on molecules per antibody.
After payload conjugation, the reaction buffer was diluted with 64 μL of 0.1 M glycine pH 2.5. The antibody conjugate was then purified by gel filtration chromatography using a pre-equilibrated with 0.1 M glycine pH 2.5 Bio-spin P-30 Column (bed height: 3.7 cm, overall length: 5 cm; available from Bio-Rad, USA) and then eluted with 0.1M glycine pH 2.5. The purified antibody conjugate fractions were neutralized with 1M PBS pH 8.5 (10 μL).
(§1) The conjugation of the payload moiety to trastuzumab was evaluated by HRMS analysis (as described above). The payload loading ratios (selectivity) between Fc and F(ab)2 were evaluated by digesting the conjugates with GingisKhan protease (1 unit per μg of antibody conjugate in the presence of 2 mM cysteine, 0.1M Tris, pH 8.0 for 1 hour at 37° C.), and subsequent HRMS analysis (as described above). The Degree of Conjugation (DoC) of the trastuzumab-payload conjugates was evaluated based on the results of the HRMS analysis (as described above).
(§2) DoC Fc=DoC−DoC F(ab)2, Selectivity Fc/F(ab)2=(DoC−DoC F(ab)2)/Doc (Fab)2

[2] = biological target: T2, rituximab (Homo sapiens, UniProt P01857); experiment: Antibody-payload conjugation, HRMS analysis (Example 12)
T2 construct: purchased Roche RITUXAN®
Experimental: To prepare the trastuzumab-payload conjugates, 2 eq of reactive conjugate prepared in Examples 5-8, 10 (2.4 nmol) in DMSO (2-7% v/v in final reaction mixture) was added to a solution of trastuzumab (1 eq, 1.2 nmol; commercial trastuzumab Herceptin® available from Roche which was buffer-exchanged into phosphate-buffered saline (PBS) prior to the conjugation) diluted in 50 mM NaHCO3 pH 9.0 (20-28 μL) and the reaction mixture (36 μL) was stirred at room temperature for 2 hours.
as §1
The propensity of the reactive conjugates of the present invention to react with different antibodies was evaluated using commercially available atezolizumab, rituximab, trastuzumab emtansine, brentuximab-vedotin, aflibercept, panitumumab, pembrolizumab and Fc region only. Antibody-DOTA/FITC conjugates were prepared according to the same procedure as described in Example 11 above using peptide conjugates (indicated in Table 19) and the aforementioned antibodies.
as §2

[3] = biological target: Fc region of trastuzumab (Homo sapiens, UniProt P01857); experiment: Competitive FP binding assay against Fc-III-FAM
Experimental: All sample preparations were done in PBS pH 7.0 containing 0.05% Tween. Each experiment was performed in triplicate.

SMILES: O=C(OCCOCCNC(=S)Nc1ccc2c(c1)C(=O)OC21c2ccc(O)cc2Oc2cc(O)ccc21)Oc1ccc(C(=O)O)cc1 [Carbonate-FITC, 4-[2-[2-[(3′,6′-dihydroxy-3-oxo-spiro [isobenzofuran-1,9′-xanthene]-5-yl)carbamothioylamino]ethoxy]ethoxycarbonyloxy]benzoic acid]
- DoC [1]: 0.83
- DoC F(ab)2 [1]: 0.54
- DoC Fc [1]: 0.29
- Labeled mAb (%) [1]: 59%
- Selectivity Fc/F(ab)2 [1]: 0.5
- DoC F(ab)2 [2]: 0.20
- Selectivity Fc/F(ab)2 [2]: 3.2
- DoC ([2]; procedure of Example 11): 0.84
- Labeled mAb (%) ([2]; procedure of Example 11): 59%
- DoC Fc ([2]; some values extrapolated as DoC − DoC F(ab)2): 0.64

SMILES: CC(=O)N[C@@H](CC(=O)O)C(=O)N[C@H]1CSSC[C@@H](C(=O)N[C@H](C(N)=O)[C@@H](C)O)NC(=O)[C@H](Cc2c[nH]c3ccccc23)NC(=O)[C@H](C(C)C)NC(=O)[C@H](CC(C)C)NC(=O)[C@H](CCC(=O)O)NC(=O)CNC(=O)[C@H](CC(C)C)NC(=O)[C@H](Cc2c[nH]cn2)NC(=O)[C@H](Cc2c[nH]c3ccccc23)NC(=O)[C@H](CCCCN)NC1=O [Compound A3K] (HELM PEPTIDE1{[ac].D.C.K.W.H.L.G.E.L.V.W.C.T.[am]}$PEPTIDE1,PEPTIDE1,3:R3-13:R3$$$V2.0)
- binding to the Fc region of trastuzumab compared to Fc-III (in words) [3]: moderate binding efficiency

SMILES: CC(=O)N[C@@H](CC(=O)O)C(=O)N[C@H]1CSSC[C@@H](C(=O)N[C@H](C(N)=O)[C@@H](C)O)NC(=O)[C@H](Cc2c[nH]c3ccccc23)NC(=O)[C@H](C(C)C)NC(=O)[C@H](CC(C)C)NC(=O)[C@H](CCC(=O)O)NC(=O)CNC(=O)[C@H](CC(C)C)NC(=O)[C@H](CCCCN)NC(=O)[C@H](Cc2c[nH]c3ccccc23)NC(=O)[C@H](C)NC1=O [Compound H5K] (HELM PEPTIDE1{[ac].D.C.A.W.K.L.G.E.L.V.W.C.T.[am]}$PEPTIDE1,PEPTIDE1,3:R3-13:R3$$$V2.0)
- binding to the Fc region of trastuzumab compared to Fc-III (in words) [3]: moderate binding efficiency

SMILES: CC(=O)N[C@@H](CC(=O)O)C(=O)N[C@H]1CSSC[C@@H](C(=O)N[C@H](C(N)=O)[C@@H](C)O)NC(=O)[C@H](Cc2c[nH]c3ccccc23)NC(=O)[C@H](C(C)C)NC(=O)[C@H](CC(C)C)NC(=O)[C@H](CCC(=O)O)NC(=O)CNC(=O)[C@H](CCCCN)NC(=O)[C@H](Cc2c[nH]cn2)NC(=O)[C@H](Cc2c[nH]c3ccccc23)NC(=O)[C@H](C)NC1=O [Compound L6K] (HELM PEPTIDE1{[ac].D.C.A.W.H.K.G.E.L.V.W.C.T.[am]}$PEPTIDE1,PEPTIDE1,3:R3-13:R3$$$V2.0)
- binding to the Fc region of trastuzumab compared to Fc-III (in words) [3]: moderate binding efficiency

SMILES: CC(=O)N[C@@H](CC(=O)O)C(=O)N[C@H]1CSSC[C@@H](C(=O)N[C@H](C(N)=O)[C@@H](C)O)NC(=O)[C@H](Cc2c[nH]c3ccccc23)NC(=O)[C@H](CCCCN)NC(=O)[C@H](CC(C)C)NC(=O)[C@H](CCC(=O)O)NC(=O)CNC(=O)[C@H](CC(C)C)NC(=O)[C@H](Cc2c[nH]cn2)NC(=O)[C@H](Cc2c[nH]c3ccccc23)NC(=O)[C@H](C)NC1=O [Compound V10K] (HELM PEPTIDE1{[ac].D.C.A.W.H.L.G.E.L.K.W.C.T.[am]}$PEPTIDE1,PEPTIDE1,3:R3-13:R3$$$V2.0)
- binding to the Fc region of trastuzumab compared to Fc-III (in words) [3]: moderate binding efficiency

SMILES: CC(=O)N[C@@H](CC(=O)O)C(=O)N[C@H]1CSSC[C@@H](C(=O)N[C@H](C(N)=O)[C@@H](C)O)NC(=O)[C@H](Cc2c[nH]c3ccccc23)NC(=O)[C@H](C(C)C)NC(=O)[C@H](CC(C)C)NC(=O)[C@H](CCC(=O)O)NC(=O)CNC(=O)[C@H](CC(C)C)NC(=O)[C@H](Cc2c[nH]cn2)NC(=O)[C@H](CCCCN)NC(=O)[C@H](C)NC1=O [Compound W4K] (HELM PEPTIDE1{[ac].D.C.A.K.H.L.G.E.L.V.W.C.T.[am]}$PEPTIDE1,PEPTIDE1,3:R3-13:R3$$$V2.0)
- binding to the Fc region of trastuzumab compared to Fc-III (in words) [3]: significant impact on peptide binding

SMILES: CC(=O)N[C@@H](CC(=O)O)C(=O)N[C@H]1CSSC[C@@H](C(=O)N[C@H](C(N)=O)[C@@H](C)O)NC(=O)[C@H](CCCCN)NC(=O)[C@H](C(C)C)NC(=O)[C@H](CC(C)C)NC(=O)[C@H](CCC(=O)O)NC(=O)CNC(=O)[C@H](CC(C)C)NC(=O)[C@H](Cc2c[nH]cn2)NC(=O)[C@H](Cc2c[nH]c3ccccc23)NC(=O)[C@H](C)NC1=O [Compound W11K] (HELM PEPTIDE1{[ac].D.C.A.W.H.L.G.E.L.V.K.C.T.[am]}$PEPTIDE1,PEPTIDE1,3:R3-13:R3$$$V2.0)
- binding to the Fc region of trastuzumab compared to Fc-III (in words) [3]: significant impact on peptide binding
